In PubChem BioAssay (NCI):
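Each compound was tested at five concentrations against cells in 96-well plates for 48 hours. Abbreviation: GI50, concentration required for 50% inhibition of growth. TGI denotes the concentration required for complete inhibition of growth.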

Columns and labels:
Test in all cases: NCI anticancer screen, dose series, 48 h
M14 melanoma = tested on: M14 melanoma
A498 renal = tested on: A498 renal
HS 578T breast = tested on: HS 578T breast
RXF 393 renal = tested on: RXF 393 renal
OVCAR-5 ovarian = tested on: OVCAR-5 ovarian
MOLT-4 leukemia = tested on: MOLT-4 leukemia
HCT-116 colon = tested on: HCT-116 colon
786-0 renal = tested on: 786-0 renal
HT29 colon = tested on: HT29 colon
RPMI-8226 leukemia = tested on: RPMI-8226 leukemia
IGROV1 ovarian = tested on: IGROV1 ovarian
NCI-H460 lung = tested on: NCI-H460 lung
NCI-H23 lung = tested on: NCI-H23 lung
SN12C renal = tested on: SN12C renal
TK-10 renal = tested on: TK-10 renal
CCRF-CEM leukemia = tested on: CCRF-CEM leukemia
K-562 leukemia = tested on: K-562 leukemia
SK-MEL-2 melanoma = tested on: SK-MEL-2 melanoma
BT-549 breast = tested on: BT-549 breast
SK-MEL-5 melanoma = tested on: SK-MEL-5 melanoma
SNB-75 CNS = tested on: SNB-75 CNS
SR leukemia = tested on: SR leukemia
MCF7 breast = tested on: MCF7 breast
HOP-62 NSCLC = tested on: HOP-62 NSCLC
SK-OV-3 ovarian = tested on: SK-OV-3 ovarian
MDA-MB-231 breast = tested on: MDA-MB-231 breast
SF-268 CNS = tested on: SF-268 CNS
UO-31 renal = tested on: UO-31 renal
COLO 205 colon = tested on: COLO 205 colon
SW-620 colon = tested on: SW-620 colon
SF-539 CNS = tested on: SF-539 CNS
OVCAR-8 ovarian = tested on: OVCAR-8 ovarian
SNB-19 CNS = tested on: SNB-19 CNS
HL-60(TB) leukemia = tested on: HL-60(TB) leukemia
NCI/ADR-RES ovarian = tested on: NCI/ADR-RES ovarian
HOP-92 NSCLC = tested on: HOP-92 NSCLC
EKVX NSCLC = tested on: EKVX NSCLC
PC-3 prostate = tested on: PC-3 prostate
UACC-62 melanoma = tested on: UACC-62 melanoma
NCI-H226 lung = tested on: NCI-H226 lung
NCI-H522 lung = tested on: NCI-H522 lung
HCC-2998 colon = tested on: HCC-2998 colon
LOX IMVI melanoma = tested on: LOX IMVI melanoma
U251 CNS = tested on: U251 CNS
MDA-MB-435 = tested on: MDA-MB-435
OVCAR-4 ovarian = tested on: OVCAR-4 ovarian
KM12 colon = tested on: KM12 colon
MALME-3M melanoma = tested on: MALME-3M melanoma
SF-295 CNS = tested on: SF-295 CNS
DU-145 prostate = tested on: DU-145 prostate
OVCAR-3 ovarian = tested on: OVCAR-3 ovarian
SK-MEL-28 melanoma = tested on: SK-MEL-28 melanoma
UACC-257 melanoma = tested on: UACC-257 melanoma
ACHN renal = tested on: ACHN renal
A549 NSCLC = tested on: A549 NSCLC
HCT-15 colon = tested on: HCT-15 colon
T-47D breast = tested on: T-47D breast

What does the source list for `COc1cc(NC(=O)c2cc(OC)c3ccn(C)c3c2)cc2c1C[C@]1(C)CC[C@@H](O)C(C)(C)[C@H]1O2`?
GI50 (M14 melanoma): 2.91 µM; TGI (M14 melanoma): 14 µM; GI50 (A498 renal): 2.85 µM; TGI (A498 renal): 7.15 µM; GI50 (HS 578T breast): 2.33 µM; TGI (HS 578T breast): 9.34 µM; GI50 (RXF 393 renal): 0.759 µM; TGI (RXF 393 renal): 4.28 µM; GI50 (OVCAR-5 ovarian): 27.3 µM; TGI (OVCAR-5 ovarian): > 100 µM; GI50 (MOLT-4 leukemia): 2.98 µM; TGI (MOLT-4 leukemia): 15 µM; GI50 (HCT-116 colon): 4.02 µM; TGI (HCT-116 colon): > 100 µM; GI50 (786-0 renal): 1.29 µM; TGI (786-0 renal): 4.08 µM; GI50 (HT29 colon): 7.24 µM; TGI (HT29 colon): > 100 µM; GI50 (RPMI-8226 leukemia): 1.35 µM; TGI (RPMI-8226 leukemia): 6.9 µM; GI50 (IGROV1 ovarian): 21.2 µM; TGI (IGROV1 ovarian): > 100 µM; GI50 (NCI-H460 lung): 5.24 µM; TGI (NCI-H460 lung): > 100 µM; GI50 (NCI-H23 lung): 17.3 µM; TGI (NCI-H23 lung): > 100 µM; GI50 (SN12C renal): 27.9 µM; TGI (SN12C renal): > 100 µM; GI50 (TK-10 renal): 35.9 µM; TGI (TK-10 renal): > 100 µM; GI50 (CCRF-CEM leukemia): 3.75 µM; TGI (CCRF-CEM leukemia): > 100 µM; GI50 (K-562 leukemia): 3.82 µM; TGI (K-562 leukemia): 39.3 µM; GI50 (SK-MEL-2 melanoma): 6.1 µM; TGI (SK-MEL-2 melanoma): 64.6 µM; GI50 (BT-549 breast): 2.98 µM; TGI (BT-549 breast): > 100 µM; GI50 (SK-MEL-5 melanoma): 2.87 µM; TGI (SK-MEL-5 melanoma): 9.08 µM; GI50 (SNB-75 CNS): 1.89 µM; TGI (SNB-75 CNS): 40.8 µM; GI50 (SR leukemia): 2.96 µM; TGI (SR leukemia): > 100 µM; GI50 (MCF7 breast): 4.68 µM; TGI (MCF7 breast): 65.9 µM; GI50 (HOP-62 NSCLC): 8.78 µM; TGI (HOP-62 NSCLC): > 100 µM; GI50 (SK-OV-3 ovarian): 6.41 µM; TGI (SK-OV-3 ovarian): > 100 µM; GI50 (MDA-MB-231 breast): 7.73 µM; TGI (MDA-MB-231 breast): 41.8 µM; GI50 (SF-268 CNS): 9.09 µM; TGI (SF-268 CNS): > 100 µM; GI50 (UO-31 renal): 2.46 µM; TGI (UO-31 renal): 5.78 µM; GI50 (COLO 205 colon): 6.12 µM; TGI (COLO 205 colon): 51.5 µM; GI50 (SW-620 colon): 11.2 µM; TGI (SW-620 colon): > 100 µM; GI50 (SF-539 CNS): 1.37 µM; TGI (SF-539 CNS): 18.8 µM; GI50 (OVCAR-8 ovarian): 26 µM; TGI (OVCAR-8 ovarian): > 100 µM; GI50 (SNB-19 CNS): 25.3 µM; TGI (SNB-19 CNS): > 100 µM; GI50 (HL-60(TB) leukemia): 3.49 µM; TGI (HL-60(TB) leukemia): 14.7 µM; GI50 (NCI/ADR-RES ovarian): 29.3 µM; TGI (NCI/ADR-RES ovarian): > 100 µM; GI50 (HOP-92 NSCLC): 4.11 µM; TGI (HOP-92 NSCLC): 32.3 µM; GI50 (EKVX NSCLC): 11.3 µM; TGI (EKVX NSCLC): > 100 µM; GI50 (PC-3 prostate): 6.17 µM; TGI (PC-3 prostate): > 100 µM; GI50 (UACC-62 melanoma): 4.31 µM; TGI (UACC-62 melanoma): 49.6 µM; GI50 (NCI-H226 lung): 26.5 µM; TGI (NCI-H226 lung): > 100 µM; GI50 (NCI-H522 lung): 20.6 µM; TGI (NCI-H522 lung): > 100 µM; GI50 (HCC-2998 colon): 13.4 µM; TGI (HCC-2998 colon): > 100 µM; GI50 (LOX IMVI melanoma): 4.08 µM; TGI (LOX IMVI melanoma): 19 µM; GI50 (U251 CNS): 4.05 µM; TGI (U251 CNS): > 100 µM; GI50 (MDA-MB-435): 9.08 µM; TGI (MDA-MB-435): 43.6 µM; GI50 (OVCAR-4 ovarian): 37.6 µM; TGI (OVCAR-4 ovarian): > 100 µM; GI50 (KM12 colon): 9.92 µM; TGI (KM12 colon): > 100 µM; GI50 (MALME-3M melanoma): 6.22 µM; TGI (MALME-3M melanoma): 70.5 µM; GI50 (SF-295 CNS): 1.01 µM; TGI (SF-295 CNS): 2.95 µM; GI50 (DU-145 prostate): 9.08 µM; TGI (DU-145 prostate): > 100 µM; GI50 (OVCAR-3 ovarian): 12.6 µM; TGI (OVCAR-3 ovarian): > 100 µM; GI50 (SK-MEL-28 melanoma): 5.29 µM; TGI (SK-MEL-28 melanoma): > 100 µM; GI50 (UACC-257 melanoma): 7.6 µM; TGI (UACC-257 melanoma): > 100 µM; GI50 (ACHN renal): 5.31 µM; TGI (ACHN renal): > 100 µM; GI50 (A549 NSCLC): 10.3 µM; TGI (A549 NSCLC): > 100 µM; GI50 (HCT-15 colon): 5.13 µM; TGI (HCT-15 colon): > 100 µM; GI50 (T-47D breast): 10.3 µM; TGI (T-47D breast): > 100 µM
